Source: patent US9572831B2, “Composition and method for sulfated non-anticoagulant low molecular weight heparins in cancer and tumor metastasis” (priority 2013, dated 2017)

Columns and labels:
[1] = tested on: pancreatic (Panc-1) tumor; test: CAM tumor implant model, Panc-1; type: in vivo; conditions: 10 ug/CAM
[2] = tested on: MPanc96-luc cells; type: in vivo, athymic nude mice; conditions: S-NACH 20 mg/kg, tinzaparin 5 mg/kg
Procedure: MPanc96-luc cells were harvested as described above and were orthotopically implanted (2×10^5 cells in 50 μl PBS per mouse) in the pancreas of anesthetized athymic nude mice. Just before treatment initiation, animals (n=10 per group) were randomized by tumor mass detected by an in vivo imaging system (IVIS, described below). Heparin derivatives S-NACH at 20 mg/kg and tinzaparin at 5 mg/kg were administered subcutaneously daily. Gemcitabine at 100 mg/kg was injected intraperitoneally twice a week alone or in combination with either S-NACH or tinzaparin. All mice used for treatment response evaluations were euthanized after 28 days. See Table 2 for the protocol of the study. Imaging was performed once per week to monitor tumor growth. Mice bearing MPanc96-luc tumors were anaesthetized using isoflurane, injected subcutaneously with 50 μl D-luciferin (30 mg/ml), then imaged. Photographic and luminescence images were taken at constant exposure time. Xenogen IVIS® Living Image software version 3.2 was used to quantify non-saturated bioluminescence in regions of interest. Light emission between 5.5×10^6-7.0×10^10 photons was assumed to be indicative of viable luciferase-labeled tumor cells while emissions below this range were considered as background. Bioluminescence was quantified as photons/second for each region of interest. In vivo tumor kinetic growth and metastasis were monitored by signal intensity. Ex vivo imaging was performed to confirm the signal intensity in the tumors after the termination. All specimens were analyzed by histology for routine analysis. Specimens were fixed in 10% buffered formalin, processed routinely, and embedded in paraffin. Then, after fixation, the specimens were transferred into the embedding chambers to hold the specimens in position until the paraffin became solid to prevent further rotation. Four μm serial sections were cut, and then stained using haematoxylin and eosin. Sections were evaluated for various pathologic parameters using a light microscope (Leica, Buffalo Grove, Ill.).

[3] = tested on: Mpanc96-luc cancer cells; test: Liver metastasis and recurrence after excision of pancreatic cancer; type: in vivo; conditions: experiment and dose not stated at the place
Description: Different groups of mice received either saline (control), LMWH, SNACH or S-SNACH, followed by injection of luciferase transfected pancreatic cancer cells into the mouse spleen. The treatment continued daily for two weeks. IVIS imaging was done once a week to measure the metastatic load to various organs. The tumor burden measurements were based on the bioluminescence signal intensity of the pancreatic cancer cells. The second experiment was intended to study the effect of the compounds (LMWH, SNACH, and S-SNACH) on metastasis after tumor excision surgery. Pancreatic Mpanc96 cells were injected into the tail of the pancreas and one week later animals were randomized into different groups. One group received saline and another group received LMWH, SNACH, and S-SNACH at 30 minutes before resection of the pancreatic tumor, followed by daily treatment for 3 weeks. Tumor metastasis was evaluated by IVIS imagining. A bleeding time experiment was done to evaluate the relative effect on bleeding time. […] Tumor luminescent signal intensity, weight, and histopathology were assessed at the termination of the study.
Mice were randomly distributed into control and treatment groups, averaging 10 mice in each group. […] The spread of cancer cells was monitored using IVIS imaging once per week, and at the end of the 3 week treatment period the mice were euthanized.

[4] = tested on: human umbilical vein; test: In vitro human vessel perfusion model; type: cell-based; conditions: FIG. 3
Description: Based on published data obtained on the tumor/vessel adherence characteristics in this model [Mousa S A., Comparative pharmacodynamic assessment of the antiangiogenesis activity of heparin and low-molecular-weight heparin fractions: structure function relationship, Clin Appl Thromb Hemost, 2013, 19(1):48-54], umbilical vein was utilized for all studies. Following informed consent, fresh umbilical cord was obtained, using a sterile technique, from the placenta following normal delivery […] from patients at local hospitals. Approximately 20 cm of the cord is excised, rinsed and wiped free of blood using cold 0.9% saline and sterile gauze. Then cold saline was used to flush the vein clean of blood. Two sections of umbilical cord (approximately 3 cm each) are cut longitudinally to expose the vein surface and are pinned to the silastic base of the chamber using 27 G×1 inch needles. […]
The vein segments were perfused for 24 hours with cancer cells in platelet-rich plasma (PRP) under venous flow conditions (70 ml/min). […] Blood gases of the perfusate were measured 15 minutes after the start and just prior to the end of the perfusion period to confirm that physiological conditions were maintained. […] Statistical significance was determined by using a paired t-test. […]

With tinzaparin the “tumor growth or tumor angiogenesis” value [1] was “inhibited”, the “tumor necrosis (histology)” value [2] was “modest increase in necrotic area” and the “tumor recurrence after surgical excision” value [3] was “not”. The “pancreatic cancer cell adhesion” value [4] was “comparable anti-adhesive potency”.
